Experimental findings from ChEMBL document CHEMBL1137962, “New heteroarylbenzenesulphonamides as matrix metalloproteinase inhibitors” (Bioorg Med Chem Lett, 2004) are described below.

Assay [1] addresses Matrix metalloproteinase-9 (Homo sapiens, UniProt P14780). Kind of assay: Inhibition of matrix metalloprotease-9.
Assay [2] concerns the target 72 kDa type IV collagenase (Homo sapiens, UniProt P08253). Nature of the assay: Inhibition of matrix metalloprotease-2.

Sequence of Matrix metalloproteinase-9 (P14780 whole entry): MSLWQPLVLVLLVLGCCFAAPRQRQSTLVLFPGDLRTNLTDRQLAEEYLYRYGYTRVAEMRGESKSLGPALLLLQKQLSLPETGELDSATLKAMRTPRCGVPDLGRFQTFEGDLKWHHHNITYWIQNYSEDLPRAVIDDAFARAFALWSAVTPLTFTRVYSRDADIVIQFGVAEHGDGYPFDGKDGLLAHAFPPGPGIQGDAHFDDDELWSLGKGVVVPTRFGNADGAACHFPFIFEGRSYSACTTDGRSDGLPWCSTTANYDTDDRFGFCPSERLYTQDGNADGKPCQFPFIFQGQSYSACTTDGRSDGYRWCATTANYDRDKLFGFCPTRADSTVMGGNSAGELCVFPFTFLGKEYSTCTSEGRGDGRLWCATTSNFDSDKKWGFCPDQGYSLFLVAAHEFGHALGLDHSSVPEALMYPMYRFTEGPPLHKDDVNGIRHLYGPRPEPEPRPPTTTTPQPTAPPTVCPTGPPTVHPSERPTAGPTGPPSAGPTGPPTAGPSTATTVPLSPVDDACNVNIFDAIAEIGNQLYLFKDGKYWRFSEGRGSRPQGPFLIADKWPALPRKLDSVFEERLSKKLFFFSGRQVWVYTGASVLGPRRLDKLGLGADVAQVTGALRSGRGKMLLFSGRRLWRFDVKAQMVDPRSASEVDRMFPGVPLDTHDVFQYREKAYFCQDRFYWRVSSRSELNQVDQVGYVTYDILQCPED
Sequence of 72 kDa type IV collagenase (P08253 whole entry): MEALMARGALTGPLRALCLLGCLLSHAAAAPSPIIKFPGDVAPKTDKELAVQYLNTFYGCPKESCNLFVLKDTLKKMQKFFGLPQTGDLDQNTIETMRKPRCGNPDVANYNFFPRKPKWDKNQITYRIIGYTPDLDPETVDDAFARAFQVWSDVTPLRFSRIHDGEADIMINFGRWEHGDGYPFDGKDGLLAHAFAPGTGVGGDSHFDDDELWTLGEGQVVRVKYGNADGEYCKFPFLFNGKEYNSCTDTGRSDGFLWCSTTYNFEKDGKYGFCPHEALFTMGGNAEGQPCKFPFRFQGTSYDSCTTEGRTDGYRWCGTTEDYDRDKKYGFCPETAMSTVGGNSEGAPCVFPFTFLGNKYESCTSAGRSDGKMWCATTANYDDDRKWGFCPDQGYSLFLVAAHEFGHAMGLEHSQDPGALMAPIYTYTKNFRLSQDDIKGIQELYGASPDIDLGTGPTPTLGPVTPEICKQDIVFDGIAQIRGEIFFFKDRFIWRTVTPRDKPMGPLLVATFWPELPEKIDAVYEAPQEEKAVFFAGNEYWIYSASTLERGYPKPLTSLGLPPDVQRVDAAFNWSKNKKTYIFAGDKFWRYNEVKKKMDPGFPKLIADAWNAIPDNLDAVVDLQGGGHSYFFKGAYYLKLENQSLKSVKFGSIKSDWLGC

Regarding `COc1ccc(-c2cnc(-c3ccc(S(=O)(=O)NC(C(=O)NO)C(C)C)cc3)o2)cc1` (centres undefined), the IC50 in assay [1] and in assay [2] was 1000 nM in each case.
Regarding `CNC(=O)[C@@H](CC(=O)[C@H](CC(C)C)[C@H](CSc1ccccc1)C(=O)NO)Cc1ccccc1`, the IC50 in assay [1] and in assay [2] was 200 nM in each case.
Regarding `COc1ccc(-c2cnc(-c3ccc(S(=O)(=O)NC(CCC(=O)O)C(=O)O)cc3)s2)cc1` (centres undefined), the IC50 in assay [1] and in assay [2] was 50 nM throughout.
For `COc1ccc(-c2cnc(-c3ccc(S(=O)(=O)NC(C(=O)NO)C(C)C)cc3)s2)cc1` (centres undefined), the IC50 in assay [1] was 900 nM; in assay [2], 400 nM.
For `COc1ccc(-c2cnc(-c3ccc(S(=O)(=O)NC(C(=O)CCC(=O)O)C(C)C)cc3)o2)cc1` (centres undefined), in that order: 10000 nM and 10000 nM.
For `COc1ccc(-c2cnc(-c3ccc(S(=O)(=O)NC(C(=O)O)C(C)C)cc3)o2)cc1` (centres undefined), in that order: 1000 nM and 1000 nM.
On to `COc1ccc(-c2cnc(-c3ccc(S(=O)(=O)NC(C(=O)O)C(C)C)cc3)s2)cc1` (centres undefined), for which the IC50 in assay [1] came to 700 nM; in assay [2], 200 nM.

By IC50 is commonly meant the point on the concentration scale where inhibition reaches its midpoint. Read a low IC50 as greater potency in that assay.
